Data from PubChem BioAssay (NCI).
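Step 1: Grow cells in 96-well plates. Step 2: Expose to compound for 48 hours at 5 concentrations. Step 3: Interpolate endpoints linearly; if unreached, use highest concentration. At the GI50, growth is halved. TGI: total growth inhibition.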

Assays:
Assay in all cases: NCI anticancer screen, dose series, 48 h
[1] = tested on: MDA-MB-435
[2] = tested on: OVCAR-3 ovarian
[3] = tested on: HS 578T breast
[4] = tested on: UACC-257 melanoma
[5] = tested on: CAKI-1 renal
[6] = tested on: SW-620 colon
[7] = tested on: SK-MEL-28 melanoma
[8] = tested on: T-47D breast
[9] = tested on: MOLT-4 leukemia
[10] = tested on: DU-145 prostate
[11] = tested on: UO-31 renal
[12] = tested on: SK-OV-3 ovarian
[13] = tested on: 786-0 renal
[14] = tested on: SF-539 CNS
[15] = tested on: A549 NSCLC
[16] = tested on: OVCAR-8 ovarian
[17] = tested on: NCI-H23 lung
[18] = tested on: UACC-62 melanoma
[19] = tested on: NCI-H460 lung
[20] = tested on: SK-MEL-2 melanoma
[21] = tested on: SK-MEL-5 melanoma
[22] = tested on: LOX IMVI melanoma
[23] = tested on: CCRF-CEM leukemia
[24] = tested on: RPMI-8226 leukemia
[25] = tested on: SR leukemia
[26] = tested on: EKVX NSCLC
[27] = tested on: HCT-15 colon
[28] = tested on: SNB-75 CNS
[29] = tested on: MALME-3M melanoma
[30] = tested on: RXF 393 renal
[31] = tested on: SN12C renal
[32] = tested on: SNB-19 CNS
[33] = tested on: PC-3 prostate
[34] = tested on: OVCAR-5 ovarian
[35] = tested on: HOP-62 NSCLC
[36] = tested on: SF-295 CNS
[37] = tested on: MCF7 breast
[38] = tested on: HT29 colon
[39] = tested on: NCI-H226 lung
[40] = tested on: HOP-92 NSCLC
[41] = tested on: NCI/ADR-RES ovarian
[42] = tested on: KM12 colon
[43] = tested on: COLO 205 colon
[44] = tested on: HL-60(TB) leukemia
[45] = tested on: HCC-2998 colon
[46] = tested on: MDA-MB-231 breast
[47] = tested on: TK-10 renal
[48] = tested on: ACHN renal
[49] = tested on: M14 melanoma
[50] = tested on: U251 CNS
[51] = tested on: NCI-H522 lung
[52] = tested on: K-562 leukemia
[53] = tested on: OVCAR-4 ovarian
[54] = tested on: SF-268 CNS
[55] = tested on: IGROV1 ovarian
[56] = tested on: BT-549 breast

CN(C)CCCCC(C(=O)CBr)(c1ccccc1)c1ccccc1
GI50 [1]: 2.45 µM | TGI [1]: 10.5 µM | GI50 [2]: 1.37 µM | TGI [2]: 2.69 µM | GI50 [3]: 3.11 µM | TGI [3]: 22.7 µM | GI50 [4]: 1.96 µM | TGI [4]: 6.59 µM | GI50 [5]: 1.42 µM | TGI [5]: 2.84 µM | GI50 [6]: 1.67 µM | TGI [6]: 5.58 µM | GI50 [7]: 1.77 µM | TGI [7]: 3.49 µM | GI50 [8]: 1.14 µM | TGI [8]: 3.71 µM | GI50 [9]: 1.92 µM | TGI [9]: 5.67 µM | GI50 [10]: 1.66 µM | TGI [10]: 3.63 µM | GI50 [11]: 1.27 µM | TGI [11]: 2.79 µM | GI50 [12]: 6.63 µM | TGI [12]: 19.4 µM | GI50 [13]: 2.12 µM | TGI [13]: 4.37 µM | GI50 [14]: 2.57 µM | TGI [14]: 6.84 µM | GI50 [15]: 4.93 µM | TGI [15]: 18.8 µM | GI50 [16]: 2.52 µM | TGI [16]: 8.48 µM | GI50 [17]: 2.81 µM | TGI [17]: 10.8 µM | GI50 [18]: 1.64 µM | TGI [18]: 4.14 µM | GI50 [19]: 6.36 µM | TGI [19]: 23 µM | GI50 [20]: 2.18 µM | TGI [20]: 6.02 µM | GI50 [21]: 2.53 µM | TGI [21]: 8.68 µM | GI50 [22]: 1.44 µM | TGI [22]: 2.99 µM | GI50 [23]: 2.06 µM | TGI [23]: 6.45 µM | GI50 [24]: 1.96 µM | TGI [24]: 5.53 µM | GI50 [25]: 2.12 µM | TGI [25]: 7.02 µM | GI50 [26]: 2.22 µM | TGI [26]: 7.42 µM | GI50 [27]: 1.64 µM | TGI [27]: 3.37 µM | GI50 [28]: 1.87 µM | TGI [28]: 13.9 µM | GI50 [29]: 1.44 µM | TGI [29]: 3.62 µM | GI50 [30]: 1.74 µM | TGI [30]: 4.06 µM | GI50 [31]: 1.98 µM | TGI [31]: 5.07 µM | GI50 [32]: 7.43 µM | TGI [32]: 23.9 µM | GI50 [33]: 2.71 µM | TGI [33]: 9.58 µM | GI50 [34]: 3.06 µM | TGI [34]: 10.9 µM | GI50 [35]: 8.06 µM | TGI [35]: 23.6 µM | GI50 [36]: 5.56 µM | TGI [36]: 19.2 µM | GI50 [37]: 1.5 µM | TGI [37]: 3.25 µM | GI50 [38]: 1.92 µM | TGI [38]: 3.94 µM | GI50 [39]: 2.38 µM | TGI [39]: 8.39 µM | GI50 [40]: 1.84 µM | TGI [40]: 4.71 µM | GI50 [41]: 2.85 µM | TGI [41]: 10.1 µM | GI50 [42]: 7.57 µM | TGI [42]: 20.7 µM | GI50 [43]: 1.78 µM | TGI [43]: 3.95 µM | GI50 [44]: 1.22 µM | TGI [44]: 3.95 µM | GI50 [45]: 2.44 µM | TGI [45]: 5.55 µM | GI50 [46]: 1.89 µM | TGI [46]: 4.49 µM | GI50 [47]: 1.5 µM | TGI [47]: 3.01 µM | GI50 [48]: 1.48 µM | TGI [48]: 3.03 µM | GI50 [49]: 1.5 µM | TGI [49]: 3.95 µM | GI50 [50]: 3.07 µM | TGI [50]: 11.5 µM | GI50 [51]: 1.25 µM | TGI [51]: 3.4 µM | GI50 [52]: 2.08 µM | TGI [52]: 5.48 µM | GI50 [53]: 1.54 µM | TGI [53]: 7.88 µM | GI50 [54]: 3.89 µM | TGI [54]: 15.8 µM | GI50 [55]: 3.6 µM | TGI [55]: 15.6 µM | GI50 [56]: 1.48 µM | TGI [56]: 3.47 µM
